Ten compounds from ChEMBL document CHEMBL1143547, “Fluorescence resonance energy transfer studies of aminoglycoside binding to a T box antiterminator RNA” (Bioorg Med Chem Lett, 2005) can be followed below.

The target of one data set is Bacillus subtilis. The experiment in a line: Binding dissociation constant towards 3'-Fl-AM1A-Rhd in Bacillus subtilis tyrS. It counts as functional.
In a further data set the test system is Nucleic Acid. The experiment in a line: Maximum Frel value for binding to 3'-Fl-AM1A-Rhd in Bacillus subtilis tyr.

As a reminder, the pKd is the negative decadic logarithm of the Kd, by convention in mol/L. A low value points to a large Kd.

Molecules are shown by their SMILES. pKd: −log10 of the molar value.

Take `NCCC(O)C(=O)N[C@@H]1C[C@H](N)[C@@H](O[C@H]2O[C@H](CN)[C@@H](O)[C@H](O)[C@H]2O)[C@H](O)[C@H]1O[C@H]1O[C@H](CO)[C@@H](O)[C@H](N)[C@H]1O` (single isomer, unassigned) [AMIKACIN]: the pKd on Bacillus subtilis was 3.12. Moreover, the Frel in the data set with Nucleic Acid worked out at 0.29.

Turning to `[H]/N=C(/N)N[C@H]1[C@H](O)[C@@H](O)[C@H](O[C@@H]2O[C@@H](C)[C@](O)(C=O)[C@H]2O[C@@H]2O[C@@H](CO)[C@H](O)[C@@H](O)[C@@H]2NC)[C@@H](N/C(N)=N\[H])[C@@H]1O` (stereo in doubt) [STREPTOMYCIN], the pKd on Bacillus subtilis is 3.10. This compound also had a Frel with Nucleic Acid of 0.34. For `NC[C@H]1O[C@H](O[C@H]2[C@H](O)[C@@H](O[C@H]3O[C@H](CO)[C@@H](O)[C@H](N)[C@H]3O)[C@H](N)C[C@@H]2N)[C@H](N)[C@@H](O)[C@@H]1O` [BEKANAMYCIN], on Bacillus subtilis, the pKd was 3.82. Besides, the Frel in the data set with Nucleic Acid came out at 0.38. `NC[C@@H]1O[C@H](O[C@H]2[C@@H](O)[C@H](O[C@@H]3[C@@H](O)[C@H](N)C[C@H](N)[C@H]3O[C@H]3O[C@H](CN)[C@@H](O)[C@H](O)[C@H]3N)O[C@@H]2CO)[C@H](N)[C@@H](O)[C@@H]1O` [FRAMYCETIN]: the negative logarithm of the Kd (pKd) on Bacillus subtilis was 5.07. Moreover, the Frel in the data set on Nucleic Acid was determined as 0.46. The compound `CN[C@@H]1[C@@H](O)[C@@H](O[C@@H]2[C@@H](O)[C@H](O[C@H]3O[C@H]([C@@H](C)NC)CC[C@H]3N)[C@@H](N)C[C@H]2N)OC[C@]1(C)O` [GENTAMICIN C1] had a negative logarithm of the Kd (pKd) at Bacillus subtilis of 3.92. In the data set with Nucleic Acid, this compound had a Frel of 0.8. As to `CN[C@@H]1[C@@H](O)[C@@H](O[C@@H]2[C@@H](O)[C@H](O[C@H]3O[C@H](C(C)N)CC[C@H]3N)[C@@H](N)C[C@H]2N)OC[C@]1(C)O` (stereo partly drawn) [GENTAMICIN C2], the pKd at Bacillus subtilis was 3.92. Besides, in the data set on Nucleic Acid, the Frel is recorded as 0.8. The compound `NC[C@@H]1O[C@@H](O[C@H]2[C@H](O)[C@@H](O[C@H]3O[C@H](CO)[C@@H](O)[C@H](N)[C@H]3O)[C@H](N)C[C@@H]2N)[C@@H](O)[C@H](O)[C@H]1O` [KANAMYCIN A] showed a pKd at Bacillus subtilis of 3.68.

In the case of `NC[C@H]1O[C@H](O[C@H]2[C@H](O)[C@@H](O[C@H]3O[C@H](CO)[C@@H](O)[C@H](N)[C@H]3O)[C@H](N)C[C@@H]2N)[C@H](O)[C@@H](O)[C@@H]1O` [KANAMYCIN A], the Frel in the data set on Nucleic Acid was 0.21. At Bacillus subtilis, `NC[C@@H]1O[C@H](O[C@H]2[C@@H](O)[C@H](O[C@@H]3[C@@H](O)[C@H](N)C[C@H](N)[C@H]3O[C@H]3O[C@H](CO)[C@@H](O)[C@H](O)[C@H]3N)O[C@@H]2CO)[C@H](N)[C@@H](O)[C@@H]1O` [PAROMOMYCIN] showed a negative logarithm of the Kd (pKd) of 4.30. In addition, in the data set on Nucleic Acid, the Frel turned out to be 0.41. The like results for `NC[C@H]1O[C@H](O[C@H]2[C@H](O)[C@@H](O[C@H]3O[C@H](CO)[C@@H](O)[C@H](N)[C@H]3O)[C@H](N)C[C@@H]2N)[C@H](N)C[C@@H]1O` [TOBRAMYCIN] were, in that order, 4.42 and 0.33.
